From ChEMBL document CHEMBL1201862, “PubChem BioAssay data set” (2004)
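How tested: cells in 96-well plates exposed to compound for 48 hours at five concentrations. The concentration for 50% growth inhibition is given as GI50.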 Activity calls are given as the source filed them. Cut-off read from the data, not from the text of the source: active = GI50 up to about 1.1 µM and inactive = higher.

Key:
Experiment in all cases: inhibition of tumour cell growth, NCI panel, 48 h
A549 = test system: A549
KM12 = test system: KM12
K562 = test system: K562
SNB-19 = test system: SNB-19
UACC-62 = test system: UACC-62
RPMI-8226 = test system: RPMI-8226
UACC-257 = test system: UACC-257
EKVX = test system: EKVX
MOLT-4 = test system: MOLT-4
786-0 = test system: 786-0
M14 = test system: M14
SF-539 = test system: SF-539
SF-295 = test system: SF-295
HOP-62 = test system: HOP-62
NCI-H522 = test system: NCI-H522
MDA-MB-231 = test system: MDA-MB-231
Hs-578T = test system: Hs-578T
DU-145 = test system: DU-145
PC-3 = test system: PC-3

Measured: GI50

O=S1(=O)c2cc(S(=O)(=O)n3ccnc3)ccc2NC2=NCCCN21
inactive: A549 34.2 µM | KM12 24.8 µM | K562 17.7 µM | SNB-19 78.5 µM | UACC-62 48.5 µM | RPMI-8226 50 µM | UACC-257 > 100 µM | EKVX > 100 µM | MOLT-4 40.7 µM | 786-0 32.2 µM | M14 26.7 µM | SF-539 19.6 µM | SF-295 29.4 µM | HOP-62 22 µM | NCI-H522 14.2 µM

Oc1ccc(O)c(-n2cccn2)c1-n1cccn1
inactive: A549 > 100 µM | KM12 > 100 µM | K562 36.8 µM | SNB-19 > 100 µM | UACC-62 97.7 µM | RPMI-8226 > 100 µM | EKVX > 100 µM | MOLT-4 > 10 µM | 786-0 > 100 µM | M14 > 100 µM | SF-539 > 100 µM | SF-295 37.2 µM | HOP-62 > 100 µM | NCI-H522 25.7 µM

NC(=S)N/N=C1/CN(c2ccc(Cl)c(Cl)c2)CC(=O)C1c1nc2ccccc2s1 (stereo unspecified)
inactive: A549 > 100 µM | KM12 42.9 µM | K562 43 µM | SNB-19 56.8 µM | UACC-62 55.7 µM | RPMI-8226 79.1 µM | UACC-257 35.2 µM | EKVX > 100 µM | 786-0 > 100 µM | M14 > 100 µM | SF-539 51.5 µM | SF-295 46.9 µM | HOP-62 > 100 µM | NCI-H522 36.1 µM

CCCC(=O)/C=C/S/C=C/C(=O)CCC
inactive: A549 28.3 µM | KM12 15.3 µM | SNB-19 21.8 µM | UACC-62 12.2 µM | MDA-MB-231 4.84 µM | UACC-257 2.27 µM | EKVX 3.29 µM | Hs-578T 4.67 µM | 786-0 2.1 µM | M14 3.28 µM | SF-539 10.7 µM | SF-295 23.9 µM | HOP-62 11.4 µM | NCI-H522 1.71 µM | DU-145 11.5 µM

O=C(O)C1(C(=O)O)CC1
inactive: A549 > 100 µM | KM12 > 100 µM | K562 > 100 µM | SNB-19 > 100 µM | UACC-62 > 100 µM | RPMI-8226 > 100 µM | UACC-257 > 100 µM | EKVX > 100 µM | MOLT-4 > 100 µM | 786-0 > 100 µM | M14 54.7 µM | SF-539 > 100 µM | SF-295 > 100 µM | HOP-62 > 100 µM | NCI-H522 > 100 µM

N#Cc1c(-c2ccc([N+](=O)[O-])cc2)c(C#N)c(=O)n(NS(=O)(=O)c2ccccc2)c1S
inactive: A549 39.9 µM | KM12 25.3 µM | K562 30.2 µM | SNB-19 44.2 µM | UACC-62 20.7 µM | RPMI-8226 20.5 µM | MDA-MB-231 21.3 µM | UACC-257 99.8 µM | EKVX 31.3 µM | MOLT-4 17.5 µM | Hs-578T 20.8 µM | 786-0 32.1 µM | PC-3 28.8 µM | M14 37 µM | SF-539 20 µM | SF-295 44.8 µM | HOP-62 > 100 µM | NCI-H522 21.2 µM

C#CCN(N=O)C(=O)ON1C(=O)CCC1=O
inactive: A549 > 100 µM | KM12 > 100 µM | K562 > 100 µM | SNB-19 > 100 µM | UACC-62 > 100 µM | RPMI-8226 > 100 µM | UACC-257 > 100 µM | EKVX > 100 µM | MOLT-4 > 100 µM | 786-0 > 100 µM | M14 > 100 µM | SF-539 > 100 µM | SF-295 > 100 µM | HOP-62 > 100 µM | NCI-H522 > 100 µM

O=C(O)CCC(NC(=O)c1ccc(Nc2nc3ccccc3nc2-c2cccs2)cc1)C(=O)O (stereo unspecified)
inactive: A549 > 100 µM | KM12 > 100 µM | K562 > 100 µM | SNB-19 > 100 µM | UACC-62 > 100 µM | RPMI-8226 > 100 µM | UACC-257 > 100 µM | EKVX > 100 µM | MOLT-4 > 100 µM | 786-0 > 100 µM | M14 > 100 µM | SF-539 > 100 µM | SF-295 > 100 µM | HOP-62 > 100 µM | NCI-H522 > 100 µM

O=S(=O)(c1ccccc1)N1N=C2c3ccccc3CCC[C@H]2C1c1ccccc1 (stereo partly specified)
inactive: A549 > 100 µM | KM12 > 92.3 µM | K562 > 100 µM | SNB-19 > 100 µM | UACC-62 > 87.1 µM | RPMI-8226 > 100 µM | UACC-257 > 100 µM | EKVX > 84.3 µM | MOLT-4 > 87.7 µM | 786-0 > 100 µM | M14 > 100 µM | SF-539 > 100 µM | SF-295 > 100 µM | HOP-62 > 100 µM | NCI-H522 > 100 µM

N#CC(C#N)=C(C(C#N)C#N)C(C#N)C#N
inactive: A549 > 100 µM | KM12 > 100 µM | K562 > 100 µM | SNB-19 > 100 µM | UACC-62 > 100 µM | RPMI-8226 > 100 µM | UACC-257 > 100 µM | EKVX > 100 µM | MOLT-4 > 100 µM | 786-0 > 100 µM | M14 > 100 µM | SF-539 > 100 µM | SF-295 > 100 µM | HOP-62 > 100 µM | NCI-H522 > 100 µM
